Measured values taken from patent US6960470B1 (priority 1998, dated 2005).

Assays:
GABAA receptor = assay type: cell-based
[1] = test system: AMPA (glutamate subtype) receptor; assay: Whole-cell patch-clamp, evoked inward synaptic current at -60 mV (glutamate currents); assay type: cell-based; settings: 2 μM NBQX; whole-cell patch-clamped neurons
Protocol: Data were prepared as graphs of the effect of agents on the GABAA receptor-mediated transmission in the mutant and wt cells using whole-cell patch-clamping. The data included the evoked synaptic response ([…]) from whole-cell patch-clamped neurons. […] The evoked synaptic responses (averaged up to 15 each) recorded at holding potentials of 0 mV and −60 mV with the stimulating electrode placed in stratum radiatum at site 1, ˜50μm from the recording electrode at site 2, ˜250 μm from the recording electrode and at site two with the stimulus intensity increased ˜3-fold. Graphs were prepared of examples of averaged (up to 15 each) traces from patch-clamp whole-cell recordings-in wt and Δ9 mutation at […] (glutamate currents) and at 0 mV (GABAA currents). The graphs included peak amplitude of response ratios (measured at holding potentials of −60 mV and 0 mV, respectively) from cells in individual slices (n=9 slices each).

Compound: picrotoxin
- block of outward current recorded at 0 mV (GABAA receptor): completely blocked

Compound: NS(=O)(=O)c1cccc2c1c([N+](=O)[O-])cc1nc(O)c(O)nc12 [NBQX]
- block of inward current at holding potential of −60 mV [1]: completely blocked
- block of outward current (di-synaptic inhibition) (GABAA receptor): blocked some of the outward current
